Measured values: patent US20060069110A1, “Substituted heterocyclic compounds and methods of use” (priority 2004, published 2006)

System: THP1 cells (LPS induced TNF release)
Test: Lipopolysaccharide-Activated THP1 Cell TNF Production Assay
Type: cell-based
Settings: Homo sapiens, THP-1; THP1 cells, bacterial LPS, secreted TNF-α after 3 h at 37° C.; read-out: IC50 values in the THP1 cell assay (LPS induced TNF release)
How it was run: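 THP1 cells at 1E6/mL were treated with 3-fold serial compound dilutions and LPS (1 μg/mL stock) for 3 h at 37 °C. Secreted TNF-α was quantified by electrochemiluminescent sandwich immunoassay. Percent of DMSO control versus concentration was fitted to a 4-parameter equation.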

IC50	Compound
≤ 20 µM	CN(c1cccc(-c2cccc(C(F)(F)F)c2)n1)c1ccnc(NCCc2ccccc2)n1 [Example 129, N^4-Methyl-N^2-phenethyl-N^4-(6-(3-(trifluoromethyl)phenyl)pyridin-2-yl)-pyrimidine-2,4-diamine]
≤ 20 µM	COc1nc(-c2ccccc2)nc(N(C)c2ccnc(N[C@@H](C)Cc3cccc(CN)c3)n2)n1 [Example 121, (S)-N^2-(1-(3-(Aminomethyl)phenyl)propan-2-yl)-N^4-(4-methoxy-6-phenyl-1,3,5-triazin-2-yl)-N^4-methylpyrimidine-2,4-diamine]
≤ 20 µM	CC(C)NCC[C@@H](Cc1ccccc1)Nc1nccc(N(C)c2ccnc(-c3ccccc3)n2)n1 [Example 58, (R)-N^2-(4-(Isopropylamino)-1-phenylbutan-2-yl)-N^4-methyl-N^4-(2-phenylpyrimidin-4-yl)pyrimidine-2,4-diamine]
≤ 20 µM	C[C@H](N)c1cccc(C[C@H](C)Nc2nccc(N(C)c3ccnc(-c4ccccc4)n3)n2)c1 [Example 40, N^2-((S)-1-(3-((S)-1-Aminoethyl)phenyl)propan-2-yl)-N^4-methyl-N^4-(2-phenyl-pyrimidin-4-yl)pyrimidine-2,4-diamine]
≤ 20 µM	CNC(=O)c1cnc(-c2ccccc2)nc1Nc1ccnc(NCCc2cccnc2)n1 [Example 101, N-Methyl-2-phenyl-4-(2-(2-(pyridin-3-yl)ethylamino)pyrimidin-4-ylamino)-pyrimidine-5-carboxamide]
≤ 20 µM	C[C@@H](Cc1cccc(CN)c1)Nc1nccc(N(C)c2ccnc(-c3ccc(F)cc3F)n2)n1 [Example 91, N^2-((S)-1-(3-(Aminomethyl)phenyl)propan-2-yl)-N^4-(2-(2,4-difluorophenyl)-pyrimidin-4-yl)-N^4-methylpyrimidine-2,4-diamine]
≤ 20 µM	CN(c1ccnc(N[C@@H](CCN2CCOCC2)Cc2ccccc2)n1)c1ccnc(-c2ccccc2)n1 [Example 54, (R)-N^4-Methyl-N^2-(4-morpholino-1-phenylbutan-2-yl)-N^4-(2-phenylpyrimidin-4-yl)pyrimidine-2,4-diamine]
≤ 20 µM	CN(c1ccnc(NCCc2cccnc2)n1)c1ccnc(-c2cccc(F)c2F)n1 [Example 76, N^4-(2-(2,3-Difluorophenyl)pyrimidin-4-yl)-N^4-methyl-N^2-(2-(pyridin-3-yl)ethyl)-pyrimidine-2,4-diamine]
≤ 20 µM	CN(c1ccnc(NC2CCN(C(=O)CN)CC2)n1)c1ccnc(-c2ccccc2)n1 [Example 43, 2-Amino-1-(4-(4-(methyl(2-phenylpyrimidin-4-yl)amino)pyrimidin-2-ylamino)-piperidin-1-yl)ethanone]
≤ 20 µM	CC(Cc1cccc(CO)c1)Nc1nccc(N(C)c2cc(Cl)nc(-c3ccccc3)c2)n1 (stereo not drawn) [Example 163, (3-(2-(4-((2-Chloro-6-phenylpyridin-4-yl)(methyl)amino)pyrimidin-2-ylamino)-propyl)phenyl)methanol]
≤ 20 µM	CN(c1ccnc(N[C@H]2CC[C@H](N)CC2)n1)c1nc(-c2ccccc2)ncc1F [Example 67, N^2-(4-Aminocyclohexyl)-N^4-(5-fluoro-2-phenylpyrimidin-4-yl)-N^4-methyl-pyrimidine-2,4-diamine]
≤ 20 µM	CN(c1cc(-c2ccccc2)c(=O)n(C)c1)c1ccnc(NC2CCN(C(=O)OC(C)(C)C)CC2)n1 [Example 173, tert-Butyl 4-(4-(Methyl(1-methyl-6-oxo-5-phenyl-1,6-dihydropyridin-3-yl)amino)pyrimidin-2-ylamino)piperidine-1-carboxylate]
≤ 20 µM	Cc1ccc(-c2cccc(N(C)c3ccnc(NCCc4ccccc4)n3)n2)cc1 [Example 137, N^4-Methyl-N^2-phenethyl-N^4-(6-p-tolylpyridin-2-yl)-pyrimidine-2,4-diamine]
≤ 20 µM	C[C@@H](Cc1cccc(CN)c1)Nc1nccc(N(C)c2nc(-c3ccccc3F)ncc2F)n1 [Example 68, N^2-((S)-1-(3-(Aminomethyl)phenyl)propan-2-yl)-N^4-(5-fluoro-2-(2-fluorophenyl)-pyrimidin-4-yl)-N^4-methylpyrimidine-2,4-diamine]
≤ 20 µM	C[C@@H](Cc1cccc(CN)c1)Nc1nccc(N(C)c2nc(-c3ccccc3)ncc2F)n1 [Example 66, (S)-N^2-(1-(3-(Aminomethyl)phenyl)propan-2-yl)-N^4-(5-fluoro-2-phenylpyrimidin-4-yl)-N^4-methylpyrimidine-2,4-diamine]
≤ 20 µM	CN(c1ccnc(NCC(c2cccnc2)N(C)C)n1)c1ccnc(-c2ccccc2)n1 (stereo not drawn) [Example 109, N^2-(2-(Dimethylamino)-2-(pyridin-3-yl)ethyl)-N^4-methyl-N^4-(2-phenylpyrimidin-4-yl)pyrimidine-2,4-diamine]
≤ 20 µM	Cc1cc(N(C)c2ccnc(-c3ccccc3)n2)nc(N[C@@H](C)Cc2cccc(CNC(=O)[C@H](C)N)c2)n1 [Example 35, (S)-N-((S)-3-((S)-2-(4-Methyl-6-(methyl(2-phenylpyrimidin-4-yl)amino)pyrimidin-2-ylamino)propyl)benzyl)-2-aminopropanamide]
≤ 20 µM	CN(c1ccnc(NCCc2cccnc2)n1)c1ccnc(-c2ccccc2C(F)(F)F)n1 [Example 75, N^4-Methyl-N^2-(2-(pyridin-3-yl)ethyl)-N^4-(2-(2-(trifluoromethyl)phenyl)pyrimidin-4-yl)pyrimidine-2,4-diamine]
≤ 20 µM	CN(c1ccnc(N[C@@H](CO)Cc2ccccc2)n1)c1ccnc(-c2ccccc2)n1 [(2R)-2-((4-(methyl(2-phenyl-4-pyrimidinyl)amino)-2-pyrimidinyl)amino)-3-phenyl-1-propanol]
≤ 20 µM	C[C@@H](N)CC(=O)N1CCC(Nc2nccc(N(C)c3ccnc(-c4ccccc4)n3)n2)CC1 [Example 44, (R)-3-Amino-1-(4-(4-(methyl(2-phenylpyrimidin-4-yl)amino)pyrimidin-2-ylamino)-piperidin-1-yl)butan-1-one]
≤ 20 µM	CN(c1ccnc(N[C@H](CCO)c2ccccc2)n1)c1ccnc(-c2ccccc2)n1 [Example 31, (R)-3-(4-(Methyl(2-phenylpyrimidin-4-yl)amino)pyrimidin-2-ylamino)-3-phenylpropan-1-ol]
≤ 20 µM	CNC(=O)c1cnc(-c2ccccc2)nc1Nc1ccnc(NCCc2ccccn2)n1 [Example 99, N-Methyl-2-phenyl-4-(2-(2-(pyridin-2-yl)ethylamino)pyrimidin-4-ylamino)-pyrimidine-5-carboxamide]
≤ 20 µM	CN(c1ccnc(N[C@@H](CCO)c2ccccc2)n1)c1ccnc(-c2ccccc2)n1 [Example 30, (S)-3-(4-(Methyl(2-phenylpyrimidin-4-yl)amino)pyrimidin-2-ylamino)-3-phenylpropan-1-ol]
≤ 20 µM	CC(=O)N[C@H]1CC[C@H](Nc2nccc(N(C)c3ccnc(-c4ccccc4)n3)n2)CC1 [Example 24, N-(4-(4-(Methyl(2-phenylpyrimidin-4-yl)amino)pyrimidin-2-ylamino)cyclohexyl)-acetamide]
≤ 20 µM	CN(c1ccnc(NCCc2ccccc2)n1)c1ccnc(-c2ccccc2)n1 [Example 106, N^4-Methyl-N^2-phenethyl-N^4-(2-phenylpyrimidin-4-yl)pyrimidine-2,4-diamine]
≤ 20 µM	CC(Cc1cccc(CO)c1)Nc1nccc(N(C)c2cc(N)nc(-c3ccccc3)n2)n1 (stereo not drawn) [Example 119, (3-(2-(4-((6-Amino-2-phenylpyrimidin-4-yl)(methyl)amino)pyrimidin-2-ylamino) -propyl)phenyl)methanol]
≤ 20 µM	COc1ccccc1-c1cccc(N(C)c2ccnc(NCCc3ccccc3)n2)n1 [Example 142, N^4-(6-(2-Methoxyphenyl)pyridin-2-yl)-N^4-methyl-N^2-phenethylpyrimidine-2,4-diamine]
